Data taken from patent US10072026B2, “Crystalline form of 3-((1R,3s,5S)-3-((7-((5-methyl-1H-pyrazol-3-yl)amino)-1,6-naphthyridin-5-yl)amino)-8-azabicyclo[3.2.1]octan-8-yl)propanenitrile” (priority 2015, dated 2018).
Read-outs that look alike come from different tables or passages of the source.

Columns and labels:
JAK1 = JAK1 (Homo sapiens (Human), UniProt P23458); test: LanthaScreen JAK biochemical assay (JAK1)
JAK2 = JAK2 (Homo sapiens (Human), UniProt O60674); test: LanthaScreen JAK biochemical assay (JAK2)
[1] = system: IL-4 induced STAT6 phosphorylation in THP-1 human monocytic cells; test: Cellular JAK potency assay, THP-1
[2] = system: IL-13 induced STAT6 phosphorylation in BEAS-2B human lung epithelial cells; test: AlphaScreen cellular JAK potency assay, BEAS-2B
[3] = IL-4 induced STAT6 phosphorylation, THP-1 cells
[4] = IL-13 induced STAT6 phosphorylation, BEAS-2B cells
[5] = THP-1 cells, IL-4 induced STAT6 phosphorylation
[6] = BEAS-2B cells, IL-13 induced STAT6 phosphorylation
[7] = Homo sapiens, THP-1, read-out: THP-1 IL4 pIC50 (converted)
[8] = Homo sapiens, BEAS-2B, read-out: BEAS2B pIC50 (converted)

JAK2, sequence (O60674 whole entry): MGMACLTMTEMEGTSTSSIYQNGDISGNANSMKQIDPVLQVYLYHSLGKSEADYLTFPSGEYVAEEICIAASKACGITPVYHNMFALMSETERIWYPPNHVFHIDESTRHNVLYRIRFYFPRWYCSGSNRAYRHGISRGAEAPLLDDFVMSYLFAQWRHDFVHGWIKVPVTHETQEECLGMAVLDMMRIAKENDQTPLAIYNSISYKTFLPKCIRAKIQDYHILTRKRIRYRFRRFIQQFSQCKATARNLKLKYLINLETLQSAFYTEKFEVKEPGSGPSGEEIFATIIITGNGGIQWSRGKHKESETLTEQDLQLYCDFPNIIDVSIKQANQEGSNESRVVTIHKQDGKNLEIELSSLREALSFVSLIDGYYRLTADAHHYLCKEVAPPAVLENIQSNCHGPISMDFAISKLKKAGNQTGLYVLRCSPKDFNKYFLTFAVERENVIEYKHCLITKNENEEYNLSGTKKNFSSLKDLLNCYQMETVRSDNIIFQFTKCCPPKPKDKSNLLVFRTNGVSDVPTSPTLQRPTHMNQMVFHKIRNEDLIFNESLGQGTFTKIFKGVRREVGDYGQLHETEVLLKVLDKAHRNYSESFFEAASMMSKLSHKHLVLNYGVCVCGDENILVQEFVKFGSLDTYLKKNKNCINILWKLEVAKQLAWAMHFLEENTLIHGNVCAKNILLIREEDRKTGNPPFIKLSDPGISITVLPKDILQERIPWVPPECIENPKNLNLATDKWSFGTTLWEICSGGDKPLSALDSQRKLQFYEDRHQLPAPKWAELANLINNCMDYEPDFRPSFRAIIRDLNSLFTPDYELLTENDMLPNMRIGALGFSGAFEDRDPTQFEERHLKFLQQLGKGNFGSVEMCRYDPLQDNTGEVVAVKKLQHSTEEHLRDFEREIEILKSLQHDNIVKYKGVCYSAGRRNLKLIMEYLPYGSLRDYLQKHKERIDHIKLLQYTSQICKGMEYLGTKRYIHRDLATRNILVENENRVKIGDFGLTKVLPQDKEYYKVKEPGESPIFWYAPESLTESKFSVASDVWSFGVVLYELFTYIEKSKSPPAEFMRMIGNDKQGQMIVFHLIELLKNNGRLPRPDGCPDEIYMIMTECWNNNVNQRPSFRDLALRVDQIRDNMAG
JAK1, sequence (P23458 whole entry): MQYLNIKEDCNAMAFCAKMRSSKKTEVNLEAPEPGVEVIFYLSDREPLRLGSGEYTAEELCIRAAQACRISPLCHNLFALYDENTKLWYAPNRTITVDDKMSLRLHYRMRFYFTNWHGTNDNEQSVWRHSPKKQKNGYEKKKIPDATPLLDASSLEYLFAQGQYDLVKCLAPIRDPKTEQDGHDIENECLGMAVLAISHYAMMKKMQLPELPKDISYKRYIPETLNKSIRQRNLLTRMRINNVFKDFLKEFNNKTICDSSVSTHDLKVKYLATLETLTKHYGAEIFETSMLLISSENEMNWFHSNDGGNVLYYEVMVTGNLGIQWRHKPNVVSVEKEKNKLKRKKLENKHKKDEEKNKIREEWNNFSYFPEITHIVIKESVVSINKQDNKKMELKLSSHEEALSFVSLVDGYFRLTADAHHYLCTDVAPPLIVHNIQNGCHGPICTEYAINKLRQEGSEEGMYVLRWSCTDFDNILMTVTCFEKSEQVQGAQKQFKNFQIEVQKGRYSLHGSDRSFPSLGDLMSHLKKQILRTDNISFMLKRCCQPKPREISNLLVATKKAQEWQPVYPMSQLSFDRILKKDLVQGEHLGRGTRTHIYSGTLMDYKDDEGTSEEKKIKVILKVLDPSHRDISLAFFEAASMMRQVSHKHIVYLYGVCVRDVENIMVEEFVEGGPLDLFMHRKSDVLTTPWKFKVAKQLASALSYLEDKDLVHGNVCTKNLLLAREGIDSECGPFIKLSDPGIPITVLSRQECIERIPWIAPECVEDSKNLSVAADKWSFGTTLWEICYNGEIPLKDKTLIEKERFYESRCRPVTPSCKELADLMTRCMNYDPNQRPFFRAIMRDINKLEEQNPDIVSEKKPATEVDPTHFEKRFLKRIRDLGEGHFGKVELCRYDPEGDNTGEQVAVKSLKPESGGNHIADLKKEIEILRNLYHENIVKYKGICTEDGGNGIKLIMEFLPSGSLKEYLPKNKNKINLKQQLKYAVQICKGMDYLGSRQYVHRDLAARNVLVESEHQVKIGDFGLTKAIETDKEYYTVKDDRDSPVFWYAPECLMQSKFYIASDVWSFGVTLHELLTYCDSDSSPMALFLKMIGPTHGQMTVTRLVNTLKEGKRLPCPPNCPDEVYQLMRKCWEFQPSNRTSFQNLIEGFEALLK

Compound	JAK 1 (pKi) (JAK1)	JAK 2 (pKi) (JAK2)	BEAS2B pIC50 [2, 4]	THP-1 IL4 pIC50 [1, 5]	BEAS2B pIC50 [2, 6]	also measured
Cc1cc(Nc2cc3ncccc3c(N[C@@H]3C[C@H]4CC[C@@H](C3)N4Cc3ccncc3)n2)n[nH]1 [Example 1-17]	B (B represents a pKi value between 9 and 10 (Ki between 1 nM and 0.1 nM))	B (B represents a pKi value between 9 and 10 (Ki between 1 nM and 0.1 nM))	B (B represents a pEC50 value between 6.7 and 7.5 (EC50 between 200 nM and 32 nM))			THP-1 IL4 pIC50 [1, 3]: B (B represents a pEC50 value between 6.7 and 7.5 (EC50 between 200 nM and 32 nM))
Cc1cc(Nc2cc3ncccc3c(N[C@@H]3C[C@H]4CCC[C@@H](C3)N4Cc3cccnc3)n2)n[nH]1 [Example 1-47]		A (A represents a pKi value≥10 (Ki≤0.1 nM))	A (A represents a pEC50 value≥7.5 (EC50≤32 nM))			THP-1 IL4 pIC50 [1, 3]: A (A represents a pEC50 value≥7.5 (EC50≤32 nM))
Cc1cc(Nc2cc3ncccc3c(N[C@@H]3C[C@H]4CCC[C@@H](C3)N4C(=O)c3ccccc3)n2)n[nH]1 [Example 2-25]		A (A represents a pKi value≥10 (Ki≤0.1 nM))	A (A represents a pEC50 value≥7.5 (EC50≤32 nM))			THP-1 IL4 pIC50 [1, 3]: A (A represents a pEC50 value≥7.5 (EC50≤32 nM))
Cc1cc(Nc2cc3ncccc3c(N[C@@H]3C[C@H]4CCC[C@@H](C3)N4C(=O)c3cncc(C#N)c3)n2)n[nH]1 [Example 2-26]	B (B represents a pKi value between 9 and 10 (Ki between 1 nM and 0.1 nM))	B (B represents a pKi value between 9 and 10 (Ki between 1 nM and 0.1 nM))	C (C represents a pEC50 value<6.7 (EC50>200 nM))			
Cc1cc(Nc2cc3ncccc3c(N[C@@H]3C[C@H]4CCC[C@@H](C3)N4C(=O)c3ccnc(C#N)c3)n2)n[nH]1 [Example 2-30]	B (B represents a pKi value between 9 and 10 (Ki between 1 nM and 0.1 nM))	B (B represents a pKi value between 9 and 10 (Ki between 1 nM and 0.1 nM))	C (C represents a pEC50 value<6.7 (EC50>200 nM))			
Cc1cc(Nc2cc3ncccc3c(N[C@@H]3C[C@H]4CCC[C@@H](C3)N4C(=O)CCC(C)C)n2)n[nH]1 [Example 2-31]	B (B represents a pKi value between 9 and 10 (Ki between 1 nM and 0.1 nM))	B (B represents a pKi value between 9 and 10 (Ki between 1 nM and 0.1 nM))	B (B represents a pEC50 value between 6.7 and 7.5 (EC50 between 200 nM and 32 nM))			
CCC(C)OC(=O)N1[C@@H]2CCC[C@H]1C[C@H](Nc1nc(Nc3cc(C)[nH]n3)cc3ncccc13)C2 (stereo partly drawn) [Example 3-12]	B (B represents a pKi value between 9 and 10 (Ki between 1 nM and 0.1 nM))	B (B represents a pKi value between 9 and 10 (Ki between 1 nM and 0.1 nM))	B (B represents a pEC50 value between 6.7 and 7.5 (EC50 between 200 nM and 32 nM))			
CCC1(S(=O)(=O)N2[C@@H]3CCC[C@H]2C[C@H](Nc2nc(Nc4cc(C)[nH]n4)cc4ncccc24)C3)CC1 [Example 4-20]		A (A represents a pKi value≥10 (Ki≤0.1 nM))	A (A represents a pEC50 value≥7.5 (EC50≤32 nM))			THP-1 IL4 pIC50 [1, 3]: A (A represents a pEC50 value≥7.5 (EC50≤32 nM))
Cc1cc(Nc2cc3nc(CN4CCOCC4)ccc3c(N[C@@H]3C[C@H]4CCC[C@@H](C3)N4S(=O)(=O)c3cncc(F)c3)n2)n[nH]1 [Example 5-30]		A (A represents a pKi value≥10 (Ki≤0.1 nM))	A (A represents a pEC50 value≥7.5 (EC50≤32 nM))			THP-1 IL4 pIC50 [1, 3]: A (A represents a pEC50 value≥7.5 (EC50≤32 nM))
Cc1cnc2cc(Nc3cc(C)[nH]n3)nc(N[C@@H]3C[C@H]4CCC[C@@H](C3)N4S(=O)(=O)N3CC(C#N)C3)c2c1 [Example 6-9]		A (A represents a pKi value≥10 (Ki≤0.1 nM))		A (A represents a pEC50 value≥7.5 (EC50≤32 nM))	A (A represents a pEC50 value≥7.5 (EC50≤32 nM))	
COc1cnc2cc(Nc3cc(C)[nH]n3)nc(N[C@@H]3C[C@H]4CC[C@@H](C3)N4CC(C)C)c2c1 [Example 6-14]	B (B represents a pKi value between 9 and 10 (Ki between 1 nM and 0.1 nM))			A (A represents a pEC50 value≥7.5 (EC50≤32 nM))	A (A represents a pEC50 value≥7.5 (EC50≤32 nM))	
COc1cnc2cc(Nc3cc(C)[nH]n3)nc(N[C@@H]3C[C@H]4CC[C@@H](C3)N4CCCF)c2c1 [Example 6-16]	B (B represents a pKi value between 9 and 10 (Ki between 1 nM and 0.1 nM))			B (B represents a pEC50 value between 6.7 and 7.5 (EC50 between 200 nM and 32 nM))	B (B represents a pEC50 value between 6.7 and 7.5 (EC50 between 200 nM and 32 nM))	
COc1cnc2cc(Nc3cc(C)[nH]n3)nc(N[C@@H]3C[C@H]4CC[C@@H](C3)N4CC(F)(F)F)c2c1 [Example 6-17]						Ki (JAK1; read-out: JAK 1 (pKi) (converted)): 0.1 to 1 nM; IC50 [1, 7]: < 31.6 nM; IC50 [2, 8]: < 31.6 nM
COC(=O)c1cnc2cc(Nc3cc(C)[nH]n3)nc(N[C@@H]3C[C@H]4CC[C@@H](C3)N4CC(=O)OC(C)C)c2c1 [Example 6-41]		B (B represents a pKi value between 9 and 10 (Ki between 1 nM and 0.1 nM))		A (A represents a pEC50 value≥7.5 (EC50≤32 nM))	B (B represents a pEC50 value between 6.7 and 7.5 (EC50 between 200 nM and 32 nM))	
Cc1cc(Nc2cc3ncc(S(C)(=O)=O)cc3c(N[C@@H]3C[C@H]4CC[C@@H](C3)N4Cc3ccncc3)n2)n[nH]1 [Example 6-59]		A (A represents a pKi value≥10 (Ki≤0.1 nM))			C (C represents a pEC50 value<6.7 (EC50>200 nM))	
Cc1cc(Nc2cc3ncc(S(C)(=O)=O)cc3c(N[C@@H]3C[C@H]4CCC[C@@H](C3)N4Cc3ccncc3)n2)n[nH]1 [Example 6-60]	A (A represents a pKi value≥10 (Ki≤0.1 nM))	A (A represents a pKi value≥10 (Ki≤0.1 nM))			B (B represents a pEC50 value between 6.7 and 7.5 (EC50 between 200 nM and 32 nM))	
CCC(C)C(=O)N1[C@@H]2CC[C@H]1C[C@H](Nc1nc(Nc3cc(C)[nH]n3)cc3nccc(OC)c13)C2 (stereo partly drawn) [Example 7-4]	B (B represents a pKi value between 9 and 10 (Ki between 1 nM and 0.1 nM))			B (B represents a pEC50 value between 6.7 and 7.5 (EC50 between 200 nM and 32 nM))	B (B represents a pEC50 value between 6.7 and 7.5 (EC50 between 200 nM and 32 nM))	
COc1ccnc2cc(Nc3cc(C)[nH]n3)nc(N[C@@H]3C[C@H]4CC[C@@H](C3)N4C(=O)C(F)F)c12 [Example 7-5]						Ki (JAK1): 0.1 to 1 nM; IC50 [1, 7]: 31.6 to 200 nM; IC50 [2, 8]: 31.6 to 200 nM
Cc1cc(Nc2nc(N[C@@H]3C[C@H]4CC[C@@H](C3)N4S(=O)(=O)c3cccnc3)c3cccnc3c2F)n[nH]1 [Example 8-4]	B (B represents a pKi value between 9 and 10 (Ki between 1 nM and 0.1 nM))			B (B represents a pEC50 value between 6.7 and 7.5 (EC50 between 200 nM and 32 nM))	B (B represents a pEC50 value between 6.7 and 7.5 (EC50 between 200 nM and 32 nM))	
Cc1cc(Nc2nc(N[C@@H]3C[C@H]4CC[C@@H](C3)N4S(=O)(=O)c3cncc(F)c3)c3cccnc3c2F)n[nH]1 [Example 8-5]	B (B represents a pKi value between 9 and 10 (Ki between 1 nM and 0.1 nM))			B (B represents a pEC50 value between 6.7 and 7.5 (EC50 between 200 nM and 32 nM))	A (A represents a pEC50 value≥7.5 (EC50≤32 nM))	
